These results are taken from patent US10814115B2, “Microneedle devices and uses thereof” (MASSACHUSETTS INSTITUTE OF TECHNOLOGY, priority 2011, dated 2020).

The conditions of series [1]: cited from earlier work.
The nature of series [2]: Visualization study: dye injection into 1.5% porcine gelatin with the microneedle prototype device. The following applies: 0.025% dye. Here is the method: Using porcine gelatin, the effects of a microneedle prototype device was evaluated. Specifically, porcine gelatin was prepared at a concentration of 1.5% to mimic the density of gastrointestinal tissue. The gelatin provided the added benefit of allowing the application site to be visualized. A prototype device filled with a solution of 0.025% allura red dye was applied to the gel and a volume of 100-300 microliters of dye was injected. A second device lacking the needles was also used as a control.
This highlights the efficacy of the microneedle device in deeper tissue penetration of the model drug compared to simple diffusion (simulated by the control device shown in FIGS. 10 A and B).

Series [3] has as its system Yorkshire swine. The protocol: Yorkshire swine approximately 70 kg in weight were fasted overnight. The animal was sedated and a femoral venous catheter placed to enable frequent blood sampling for glucose monitoring. An endoscope was introduced orally or rectally depending on the tissue being accessed. Oral access for the stomach and small intestine and rectal access for the colon.
Glucose levels were monitored by frequent blood sampling via the femoral venous catheter with the aid of a glucometer.
This was administered with the use of a Carr-Locke needle which is 500 μm in length and 514 μm in diameter. Frequent blood glucose monitoring was performed via the use of a central line (femoral venous catheter).
To further validate the delivery of biologics at different segment we further evaluated the use of microinjection in the duodenum (the first part of the small intestine). Here the pH ranges from 5.5-7 and there are a broader range of proteases.
This was again administered with the use of the Carr-Locke needle. Frequent blood glucose monitoring was performed via the use of a central line (femoral venous catheter).
This was administered with the use of the microneedle prototype shown previously. Frequent blood glucose monitoring was performed via the use of a central line (femoral venous catheter).

In series [4] the test system is Yorkshire swine. The following applies: 100 units in 10 ml saline enema.
Description: In order to evaluate the efficacy of abrasion and drug delivery a Yorkshire swine animal 70 kg in weight was fasted overnight. The animal was sedated and a central venous line was placed for frequent blood sampling. The rectum was cleansed with a tap water enema and an abrasion created in the rectal mucosa.

Like-named read-outs stand apart in the source and are kept apart here. Some results are limits rather than exact numbers.

Erythropoietin: the “Known Toxic Levels” value in series [1] (in vivo) is listed as >100,000 units. On to `CCCC1O[C@@H]2C[C@H]3[C@@H]4CCC5=CC(=O)C=C[C@]5(C)[C@H]4[C@@H](O)C[C@]3(C)[C@]2(C(=O)CO)O1` (some centres unmarked) [Budesonide], for which the “Known Toxic Levels” value in series [1] (in vivo) is 3200 mg/kg. In the case of Etanercept, the “Known Toxic Levels” value in series [1] (in vivo) is on record as more than 1000 mg/animal. In the case of Infliximab, the “Known Toxic Levels” value in series [1] (no direct toxic effect observed) is listed as more than 20 mg/kg no. Turning to `CC[C@H](C)[C@@H]1NC(=O)[C@H](Cc2ccc(O)cc2)NC(=O)[C@@H](N)CSSC[C@@H](C(=O)N2CCC[C@H]2C(=O)N[C@@H](CC(C)C)C(=O)NCC(N)=O)NC(=O)[C@H](CC(N)=O)NC(=O)[C@H](CCC(N)=O)NC1=O` [Oxytocin], the “Known Toxic Levels” value in series [1] (in vivo) is reported as >10,000 units/kg. With `CC[C@H](C)[C@H](NC(=O)[C@@H]1CCCN1C(=O)CNC(=O)[C@H](Cc1ccccc1)NC(=O)[C@H](CC(N)=O)NC(=O)[C@H](CC(N)=O)NC(=O)[C@H](CO)NC(=O)[C@H](CO)NC(=O)[C@H](Cc1c[nH]cn1)NC(=O)[C@@H](NC(=O)[C@H](CC(C)C)NC(=O)[C@H](Cc1ccccc1)NC(=O)[C@H](CC(N)=O)NC(=O)[C@H](C)NC(=O)[C@H](CC(C)C)NC(=O)[C@H](CCCNC(=N)N)NC(=O)[C@H](CCC(N)=O)NC(=O)[C@@H](NC(=O)[C@H](C)NC(=O)[C@@H]1CSSC[C@H](NC(=O)[C@@H](N)CCCCN)C(=O)N[C@@H](CC(N)=O)C(=O)N[C@@H]([C@@H](C)O)C(=O)N[C@@H](C)C(=O)N[C@@H]([C@@H](C)O)C(=O)N1)[C@@H](C)O)C(C)C)C(=O)N[C@@H](CC(C)C)C(=O)N1CCC[C@H]1C(=O)N1CCC[C@H]1C(=O)N[C@H](C(=O)N[C@@H](CC(N)=O)C(=O)N[C@H](C(=O)NCC(=O)N[C@@H](CO)C(=O)N[C@@H](CC(N)=O)C(=O)N[C@H](C(=O)N[C@@H](Cc1ccc(O)cc1)C(N)=O)[C@@H](C)O)C(C)C)[C@@H](C)O` [Pramlintide], the “Known Toxic Levels” value in series [1] (in vivo) was more than 600 µg/kg/day. Turning to `COc1cc(S(=O)(=O)[O-])c(C)cc1N=Nc1c(O)ccc2cc(S(=O)(=O)[O-])ccc12.[Na+].[Na+]` [allura red dye, allura red], the “Permeation of dye into gel matrix” value is given as “expulsion of the dye over the gel surface” in series [2] (control device lacking needles) and “enabled permeation of the dye into the gel matrix” in series [2] (device with microneedles, 100-300 microliters). insulin aspart: the “Hypoglycemic response (blood glucose versus post-injection time)” value is reported as “hypoglycemic response” in series [3] (colon, 20 units, microneedle prototype, one experiment); “hypoglycemic response” in series [3] (duodenum, 10 units, Carr-Locke needle, one experiment); “hypoglycemic response” in series [3] (stomach (transgastric), 10 units, Carr-Locke needle, 3 separate experiments). In series [3] (insulin injections, stomach, duodenum), the “Time to hypoglycemic response after administration” value was 20 to 40 min. Moreover, the Hypoglycemic response result in series [3] (insulin release without the use of needles (control, 10 units)) is on record as “did not induce a hypoglycemic (low glucose) response”. Besides, in series [4] (absence of an abrasion), the “Glucose levels after insulin enema” value was “did not decrease”. For the same compound, the “Time to decrement in serum glucose after administration” value in series [4] (rectal mucosa with abrasion) lay within 20 to 30 min. For the same compound, in series [4] (rectal mucosa with abrasion, baseline glucose 80-82 mg/dL), the “Serum glucose level after insulin enema” value is 60 mg/dL. As for Rituximab, in series [1] (in vivo), the “Known Toxic Levels” value was more than 5 g/animal.
